In US20240041976A1, “COMPOSITION AND USE” (priority 2020, published 2024):

What was measured:
Assay type in all cases: cell-based, Staphylococcus aureus
[1] = system: three MRSA strains (ATCC33591-lux, USA-300 and MRSA 43484); assay: AAMP assay and checkerboard synergy, summary
Experimental: Briefly, equal amounts of antimicrobial A were applied on microtiter plate 1 in wells A1-H1 and then diluted two-fold to wells 2-12. Similarly, equal amounts of antimicrobial B were applied on microtiter plate 2 in wells A1-A12 and diluted two-fold in wells B-H. Volumes of 50 μl of antimicrobial A from each well of microtiter plate 1 were transferred into microtiter plate 3, except for wells H1-H12. Similarly, the same volumes were transferred from microtiter plate 2 into plate 3, except for wells A1-A8. […] A 50 μl volume of pure broth was added into each well in lines H1-H12 and A1-A8 which were used to estimate MIC values of pure substances (blank).
Three-component synergy was assessed by mixing the three components (100 μg of PenG, 50 μg of GarKS and 2.5 μg of MP1) into one well of a microtiter plate, compared with activity of individual antimicrobials on the same plate.

S. aureus LMG3242 = assay: AAMP assay (MIC), single components and formulation mixture
Experimental: (§1) Antimicrobial activity was measured using the AAMP assay (Wiegand et al., 2008, Nat. Protoc., Vol. 3(2), p 163-175).
(§2) Three-component synergy was assessed by mixing the three components (100 μg of PenG, 50 μg of GarKS and 2.5 μg of MP1) into one well of a microtiter plate, compared with activity of individual antimicrobials on the same plate. The fractional inhibition concentration (FIC) which was used to define synergy was calculated as set forth in Example 1.

S. aureus LMG3264 = assay: as above
Experimental: as §1, §2

S. aureus LMG3026 = assay: as above
Experimental: as §1, §2

S. aureus LMG3271 = assay: as above
Experimental: as §1, §2

S. aureus LMG3328 = assay: as above
Experimental: as §1, §2

S. aureus LMG3266 = assay: as above
Experimental: as §1, §2

S. aureus LMG3307 = assay: as above
Experimental: as §1, §2

S. aureus LMG3255 = assay: as above
Experimental: as §1, §2

S. aureus LMG3322 = assay: as above
Experimental: as §1, §2

S. aureus LMG3265 = assay: as above
Experimental: as §1, §2

S. aureus LMG3314 = assay: as above
Experimental: as §1, §2

S. aureus LMG3258 = assay: as above
Experimental: as §1, §2

S. aureus LMG3263 = assay: as above
Experimental: as §1, §2

MRSA USA-300 = assay: AAMP assay and checkerboard synergy; details: MRSA USA-300
Experimental: as §1
(§3) Synergy testing was done with a microtiter plate checkerboard assay as previously described (Orhan et al., 2005, J. Clin. Microbiol., Vol. 43(1), p 140-143). Briefly, equal amounts of antimicrobial A were applied on microtiter plate 1 in wells A1-H1 and then diluted two-fold to wells 2-12. Similarly, equal amounts of antimicrobial B were applied on microtiter plate 2 in wells A1-A12 and diluted two-fold in wells B-H. Volumes of 50 μl of antimicrobial A from each well of microtiter plate 1 were transferred into microtiter plate 3, except for wells H1-H12. Similarly, the same volumes were transferred from microtiter plate 2 into plate 3, except for wells A1-A8. A 100 μl volume of 25 times diluted ON bacterial culture of MRSA was transferred into each well of plate 3. A 50 μl volume of pure broth was added into each well in lines H1-H12 and A1-A8 which were used to estimate MIC values of pure substances (blank).
as §2

MRSA ATCC 33591-lux = assay: AAMP assay and checkerboard synergy; details: MRSA ATCC 33591-lux
Experimental: as §1, §3, §2

MRSA 43484 = assay: AAMP assay and checkerboard synergy; details: MRSA 43484
Experimental: as §1, §3, §2

MRSA = assay: MIC of the mixture dissolved in 5% HPC
Experimental: as §1
We also tested hydroxypropyl cellulose (HPC) which is a more hydrophilic polymer and commonly used for topical and oral pharmaceutical preparations (Alvarez-Lorenzo et al., 1999, Int. J. Pharmaceutics, Vol. 180(1), p 91-103).

[2] = triple combination PenG, GarKS and MP1
[3] = Staphylococcus aureus, 24 h, read-out: MIC, single antimicrobial

## CC1(C)S[C@@H]2[C@H](NC(=O)Cc3ccccc3)C(=O)N2[C@H]1C(=O)O [Penicillin G]
[1]; All three strains
  MIC of GarKS in comb. antibiotic/GarKS/MP1: 4 µg/mL
  MIC of MP1 in comb. antibiotic/GarKS/MP1: 0.08 µg/mL
  MIC of MP1 in comb. with the labelled antibiotic: 0.16 to 0.3 µg/mL
  MIC of the antibiotic in comb. with GarKS and MP1: 8 µg/mL
  MIC of the antibiotic in comb. with MP1: 16 to 32 µg/mL
  MIC of the antimicrobial in comb. with GarKS: 16 µg/mL
[1]; GarKS with Amp or PenG
  MIC of the component when combined: 16 µg/mL
[1]; MP1 with PenG
  MIC of the component when combined: 16 to 32 µg/mL
  reduction of MIC when combined: 80-150 times
[1]; Staphylococcus aureus, 24 h, All three strains, read-out: MIC, single antimicrobial
  MIC: > 2500 µg/mL
[1]; checkerboard assay
  synergy with GarKS: moderate synergy
[1]; [2]
  MIC of the component when combined: 8 µg/mL
  reduction of MIC when combined: more than 300 times
S. aureus LMG3242; Staphylococcus aureus, LMG3242, 24 h, read-out: MIC, single component
  MIC: 0.24 µg/mL
S. aureus LMG3264; Staphylococcus aureus, LMG3264, 24 h, read-out: MIC, single component
  MIC: 4 µg/mL
S. aureus LMG3026; Staphylococcus aureus, LMG3026, 24 h, read-out: MIC, single component
  MIC: > 2500 µg/mL
S. aureus LMG3271; Staphylococcus aureus, LMG3271, 24 h, read-out: MIC, single component
  MIC: < 0.24 µg/mL
S. aureus LMG3328; Staphylococcus aureus, LMG3328, 24 h, read-out: MIC, single component
  MIC: < 0.24 µg/mL
S. aureus LMG3266; Staphylococcus aureus, LMG3266, 24 h, read-out: MIC, single component
  MIC: 64 µg/mL
S. aureus LMG3307; Staphylococcus aureus, LMG3307, 24 h, read-out: MIC, single component
  MIC: < 0.24 µg/mL
S. aureus LMG3255; Staphylococcus aureus, LMG3255, 24 h, read-out: MIC, single component
  MIC: < 0.24 µg/mL
S. aureus LMG3322; Staphylococcus aureus, LMG3322, 24 h, read-out: MIC, single component
  MIC: < 0.24 µg/mL
S. aureus LMG3265; Staphylococcus aureus, LMG3265, 24 h, read-out: MIC, single component
  MIC: 125 µg/mL
S. aureus LMG3314; Staphylococcus aureus, LMG3314, 24 h, read-out: MIC, single component
  MIC: < 0.24 µg/mL
S. aureus LMG3258; Staphylococcus aureus, LMG3258, 24 h, read-out: MIC, single component
  MIC: 64 µg/mL
S. aureus LMG3263; Staphylococcus aureus, LMG3263, 24 h, read-out: MIC, single component
  MIC: 125 µg/mL
MRSA USA-300
  MIC of GarKS in comb. antibiotic/GarKS/MP1: 4 µg/mL
  MIC of MP1 in comb. antibiotic/GarKS/MP1: 0.08 µg/mL
  MIC of MP1 in comb. with the labelled antibiotic: 0.3 µg/mL
  MIC of the antibiotic in comb. with GarKS and MP1: 8 µg/mL
  MIC of the antibiotic in comb. with MP1: 32 µg/mL
  MIC of the antimicrobial in comb. with GarKS: 16 µg/mL
MRSA USA-300; [3]
  MIC: < 2500 µg/mL
MRSA ATCC 33591-lux
  MIC of GarKS in comb. antibiotic/GarKS/MP1: 4 µg/mL
  MIC of MP1 in comb. antibiotic/GarKS/MP1: 0.08 µg/mL
  MIC of MP1 in comb. with the labelled antibiotic: 0.16 µg/mL
  MIC of the antibiotic in comb. with GarKS and MP1: 8 µg/mL
  MIC of the antibiotic in comb. with MP1: 16 µg/mL
  MIC of the antimicrobial in comb. with GarKS: 16 µg/mL
MRSA ATCC 33591-lux; [3]
  MIC: < 2500 µg/mL
MRSA 43484
  MIC of GarKS in comb. antibiotic/GarKS/MP1: 4 µg/mL
  MIC of MP1 in comb. antibiotic/GarKS/MP1: 0.08 µg/mL
  MIC of MP1 in comb. with the labelled antibiotic: 0.3 µg/mL
  MIC of the antibiotic in comb. with GarKS and MP1: 8 µg/mL
  MIC of the antibiotic in comb. with MP1: 32 µg/mL
  MIC of the antimicrobial in comb. with GarKS: 16 µg/mL
MRSA 43484; [3]
  MIC: < 2500 µg/mL
MRSA; Staphylococcus aureus, MRSA, read-out: final MIC of the component in the mixture in HPC
  MIC: 2 µg/mL

B1: Garvicin KS: three-peptide leaderless bacteriocin (GarA, GarB, GarC; SEQ ID NO:6-8), peptides synthesized (peptide, listed as Lactococcus garvieae)
chain 1: MGAIIKAGAKIVGKGVLGGGASWLGWNVGEKIWK
chain 2: MGAIIKAGAKIIGKGLLGGAAGGATYGGLKKIFG
chain 3: MGAIIKAGAKIVGKGALTGGGVWLAEKLFGGK
[1]; GarKS with Amp or PenG
  reduction of MIC when combined: 4 times
[1]; checkerboard assay
  MIC of the component when GarKS and MP1 are combined: 8 µg/mL
[1]; [2]
  MIC of the component when combined: 4 µg/mL
  reduction of MIC when combined: about 8 times
S. aureus LMG3242; LMG3242
  MIC, single component: 32 µg/mL
S. aureus LMG3264; LMG3264
  MIC, single component: 32 µg/mL
S. aureus LMG3026; LMG3026
  MIC, single component: 16 µg/mL
S. aureus LMG3271; LMG3271
  MIC, single component: 32 µg/mL
S. aureus LMG3328; LMG3328
  MIC, single component: 32 µg/mL
S. aureus LMG3266; LMG3266
  MIC, single component: 32 µg/mL
S. aureus LMG3307; LMG3307
  MIC, single component: 32 µg/mL
S. aureus LMG3255; LMG3255
  MIC, single component: 32 µg/mL
S. aureus LMG3322; LMG3322
  MIC, single component: 16 µg/mL
S. aureus LMG3265; LMG3265
  MIC, single component: 16 µg/mL
S. aureus LMG3314; LMG3314
  MIC, single component: 32 µg/mL
S. aureus LMG3258; LMG3258
  MIC, single component: 32 µg/mL
S. aureus LMG3263; LMG3263
  MIC, single component: 16 µg/mL
MRSA USA-300
  MIC, single antimicrobial: 32 µg/mL
MRSA ATCC 33591-lux
  MIC, single antimicrobial: 32 µg/mL
MRSA 43484
  MIC, single antimicrobial: 32 µg/mL
MRSA
  final MIC of the component in the mixture in HPC: 2 µg/mL
